How the values were obtained:
Assay type in all cases: in vivo
ORYZA (Oryza sativa) = test: Post-emergence greenhouse test, damage to cultivated plant rice; conditions: for Damage ORYZA: dosage 300 g a.i./ha
Experimental: (§1) Seeds or root pieces of harmful mono- and dicotyledonous plants are placed in sandy clay soil in pots, covered with earth and secured in a greenhouse under good growing conditions (temperature, air humidity, water supply). Approximately three weeks after sowing, the plants are treated at the 2- to 3-leaf stage with the herbicidal active substances or the combinations according to the invention. The combinations according to the invention formulated as wettable powders or as emulsion concentrates are sprayed, in spray application, on to the green plant parts in different dosages with a water application rate of 600 to 800 I/ha (corrected). Immediately up to a few days after application, the test receptacles accumulate water over the ground surface by up to 30 mm. With the water application (submerged application), on the other hand, the ground in the closed test receptacle is already covered with the paddy water up to 30 mm at the time of the application. The formulated active substances are here added directly to the paddy water. After an exposure time of the test plants in the greenhouse of an additional 3 to 4 weeks under optimum growing conditions, the effect of the preparations is evaluated visually in comparison with untreated controls. […] In this connection, actions of the combinations according to the invention which exceed the formal sum of the actions of the herbicides when applied individually are frequently observed. The values observed for the tests show, with suitable low dosages, an action of the combinations which lie above the expected values according to Colby.
(§2) When the combinations according to the invention are used, herbicidal actions on a harmful plant species which exceed the formal sum of the actions of the herbicides present when applied singly are frequently observed. Alternatively, it can in many cases be observed that a lower application rate for the herbicidal combination is needed in order to achieve, in comparison with the individual preparations, the same action with a harmful plant species. Such improvements in action or improvements in effectiveness or economies in application rate are a strong indication of a synergistic effect. If the observed activity values already exceed the formal sum of the values for the tests with individual applications, then they likewise exceed the expected value according to Colby, which is calculated according to the following formula and is likewise regarded as an indication of synergy (cf. S. R. Colby in Weeds, 15 (1967), pp. 20 to 22):
(§3) In this connection: • A, B=action of the component A or B in percent at a dosage of a or b grams ai/ha, • E=expected value in % at a dosage of a+b grams ai/ha.
(§4) The values observed for the test examples mentioned below are greater than (harmful plants) or lower than (cultivated plants) the expected values according to Colby.

[1] = tested on: SCPSS (Scirpus juncoides); test: Post-emergence weed action, greenhouse pot test
Experimental: as §1, §2, §3, §4

[2] = tested on: BRAPL (Brachiaria platyphylla); test: Post-emergence weed action, greenhouse pot test
Experimental: as §1, §2, §3, §4

[3] = tested on: LEFCH (Leptochloa chinensis); test: Post-emergence weed action, greenhouse pot test
Experimental: as §1, §2, §3, §4

[4] = tested on: CYPES (Cyperus serotinus); test: Post-emergence weed action, greenhouse pot test; conditions: Table 4, post-emergence, dosage 100 g a.i./ha
Experimental: as §1, §2, §3, §4

[5] = tested on: ECHCG (Echinochloa crus galli); test: Post-emergence weed action, greenhouse pot test; conditions: Table 4, post-emergence, dosage 100 g a.i./ha
Experimental: as §1, §2, §3, §4

[6] = Table 2, post-emergence, dosage 12.5 g a.i./ha
[7] = Table 5, post-emergence, dosage 62.5 g a.i./ha
[8] = Table 5, post-emergence, dosage 12.5 g a.i./ha
[9] = Table 3, post-emergence, dosage 6.25 g a.i./ha
[10] = Table 6, post-emergence, dosage 6.25 g a.i./ha

## CS(=O)(=O)c1ccc(C(=O)C2C(=O)CCCC2=O)c(Cl)c1COCC(F)(F)F [Compound A1, tembotrione]
ORYZA (Oryza sativa); in vivo
  Action/Damage ORYZA: 10%
[1]; Table 7, post-emergence, dosage 12.5 g a.i./ha
  Action against SCPSS: 40%
[1]; Table 8, post-emergence, dosage 12.5 g a.i./ha
  Action against SCPSS: 40%
[1]; Table 9, post-emergence, dosage 12.5 g a.i./ha
  Action against SCPSS: 40%
[1]; Table 10, post-emergence, dosage 12.5 g a.i./ha
  Action against SCPSS: 40%
[2]; [6]
  Action/Damage BRAPL: 20%

## CS(=O)(=O)c1ccc(C(=O)C2C(=O)CCCC2=O)c(Cl)c1COCC1CCCO1 (stereo not shown) [Compound A2, tefuryltrione]
ORYZA (Oryza sativa); [7]
  Action/Damage ORYZA: 10%
[1]; Table 7, post-emergence, dosage 37.5 g a.i./ha
  Action against SCPSS: 50%
[2]; [7]
  Action/Damage BRAPL: 25%

## CS(=O)(=O)c1ccc(C(=O)C2C(=O)CCCC2=O)c(Cl)c1 [Compound B1, sulcotrione]
ORYZA (Oryza sativa); [6]
  Action/Damage ORYZA: 5%
ORYZA (Oryza sativa); [8]
  Action/Damage ORYZA: 5%
[2]; [6]
  Action/Damage BRAPL: 0%
[2]; [8]
  Action/Damage BRAPL: 0%

## CCCCOC(=O)[C@@H](C)Oc1ccc(Oc2ccc(C#N)cc2F)cc1 [Compound B3, cyhalofop-butyl]
ORYZA (Oryza sativa); [9]
  Action/Damage ORYZA: 0%
ORYZA (Oryza sativa); [10]
  Action/Damage ORYZA: 0%
[3]; [10]
  Action/Damage LEFCH: 0%
[2]; [9]
  Action/Damage BRAPL: 0%

## CS(=O)(=O)c1ccc(C(=O)C2=C(Sc3ccccc3)C3CCC(C3)C2=O)c(Cl)c1 (stereo not shown) [Compound B5, benzobicyclon]
[1]; Table 8, post-emergence, dosage 37.5 g a.i./ha
  Action against SCPSS: 60%

## Cc1ccc(S(=O)(=O)Oc2c(C(=O)c3ccc(Cl)cc3Cl)c(C)nn2C)cc1 [Compound B6, pyrazolynate]
[1]; Table 9, post-emergence, dosage 250 g a.i./ha
  Action against SCPSS: 30%

## CC(C)(NC(=O)C(Br)C(C)(C)C)c1ccccc1 (stereo not shown) [Compound B7, bromobutide]
[1]; Table 10, post-emergence, dosage 125 g a.i./ha
  Action against SCPSS: 70%

## CCOC(=O)C1=NOC(c2ccccc2)(c2ccccc2)C1 [Compound C1, isoxadifen-ethyl]
ORYZA (Oryza sativa); Table 11, post-emergence
  Damage ORYZA: 0%
ORYZA (Oryza sativa); Table 12, post-emergence
  Damage ORYZA: 0%
[3]; Table 4, post-emergence, dosage 100 g a.i./ha
  Wirkung gegen LEFCH: 0%
[4]
  Wirkung gegen CYPES: 0%
[5]
  Wirkung gegen ECHCG: 0%
